Laboratory results reported in patent US20250270645A1, “ALGORITHM AND AN IN VITRO METHOD BASED ON RNA EDITING TO SELECT PARTICULAR EFFECT INDUCED BY ACTIVE COMPOUNDS” (ALCEDIAG, priority 2016, published 2025).
“Also recorded” adds a separate entry of the source.

What was measured:
HTR2C RNA editing [1] = assay: Time course of HTR2C RNA editing in SH-SY5Y cells with risk score by the most preferred algorithm (prob(Algorithm)); assay type: cell-based, human; details: for prob(Algorithm) risk score / prediction: SH-SY5Y, HTR2C; for time course of HTR2C RNA editing profile: SH-SY5Y cells, 12-48 h; for risk score over time points: most preferred algorithm, each time point
[2] = annotation of the molecule (low/no risk versus high/at risk); cited from earlier work
HTR2C RNA editing [3] = assay: Dose-dependent alterations of HTR2C RNA editing profile in SH-SY5Y cells; assay type: cell-based, human; details: compared to vehicle-treated cells
Description: Prior to the experiment, the human neuroblastoma cell line (SH-SY5Y) was treated with an increasing dose of interferon and RNA editing of 5HT2cR was measured using NGS based approach.
The RNA editing profiles represent the respective relative proportion of HTR2C RNA editing as compared to vehicle-treated SH-SY5Y cells.

ADAR1a mRNA expression = assay: Relative ADAR1a mRNA expression by quantitative PCR in treated SH-SY5Y cells; assay type: cell-based, human; details: 48 hours
Description: After cDNA synthesis samples were stored at 4° C. prior analysis of ADAR1a mRNA expression by qPCR on a LC480 system (Roche). qPCR data were quantified using the standard curve method. mRNA expression of ADAR1a is known to be induced by Interferon alpha treatment (IFNα). […] In this way, all samples of the same batch could be analysed in a single qPCR run. […] This response could be seen in all biological replicates (n=5). […] The coefficient of variation of 9.31% clearly illustrates the reproducibility of the biological phenomenon.

Structure (SMILES): O=C1CCc2ccc(OCCCCN3CCN(c4cccc(Cl)c4Cl)CC3)cc2N1 [Aripiprazole]
- prob(Algorithm) risk score (HTR2C RNA editing [1]; 12 h treatment): 0.528
- prediction (HTR2C RNA editing [1]; 24 h treatment): Pos
- prob(Algorithm) risk score (HTR2C RNA editing [1]; 24 h treatment): 0.632
- prediction (HTR2C RNA editing [1]; 48 h treatment): Pos
- prob(Algorithm) risk score (HTR2C RNA editing [1]; 48 h treatment): 0.760
- time course of HTR2C RNA editing profile (HTR2C RNA editing [1]): time-dependent alterations of the RNA editing profile
- risk score over time points (HTR2C RNA editing [1]): identified positively at risk starting from 24 hours and beyond
- risk class to induce psychiatric adverse side effect in a patient [2]: at risk

Structure (SMILES): CNCCC(Oc1ccc(C(F)(F)F)cc1)c1ccccc1 (centres unmarked) [Fluoxetine]
- risk class to induce psychiatric adverse side effect in a patient [2]: high risk

Structure (SMILES): CC1=C(/C=C/C(C)=C/C=C/C(C)=C\C(=O)O)C(C)(C)CCC1 [Isotretinoin]
- risk class to induce psychiatric adverse side effect in a patient [2]: at risk

Structure (SMILES): CNC1(c2ccccc2Cl)CCCCC1=O (centres unmarked) [Ketamine]
- risk class to induce psychiatric adverse side effect in a patient [2]: low risk
- dose dependence of 5-HT2cR/HTR2C RNA editing profile (HTR2C RNA editing [3]): Dose-dependent alterations of RNA editing profiles

Structure (SMILES): CCN(CC)CC(=O)Nc1c(C)cccc1C [Lidocaine]
- risk class to induce psychiatric adverse side effect in a patient [2]: low or no risk

Structure (SMILES): [Li] [Lithium]
- risk class to induce psychiatric adverse side effect in a patient [2]: low risk

Structure (SMILES): COC(=O)[C@H]1[C@H]2C[C@@H]3c4[nH]c5cc(OC)ccc5c4CCN3C[C@H]2C[C@@H](OC(=O)c2cc(OC)c(OC)c(OC)c2)[C@@H]1OC [Reserpine]
- prediction (HTR2C RNA editing [1]; 12 h treatment): Pos
- prob(Algorithm) risk score (HTR2C RNA editing [1]; 12 h treatment): 0.878
- prediction (HTR2C RNA editing [1]; 24 h treatment): Pos
- prob(Algorithm) risk score (HTR2C RNA editing [1]; 24 h treatment): 0.986
- prediction (HTR2C RNA editing [1]; 48 h treatment): Pos
- prob(Algorithm) risk score (HTR2C RNA editing [1]; 48 h treatment): 0.976
- time course of HTR2C RNA editing profile (HTR2C RNA editing [1]): time-dependent alterations of the RNA editing profile
- risk score over time points (HTR2C RNA editing [1]): risk scores were high at all time points
- effect on ADAR1a mRNA expression (ADAR1a mRNA expression): consistently increase ADAR1a mRNA levels
- risk class to induce psychiatric adverse side effect in a patient [2]: high risk

Structure (SMILES): NC(=O)c1ncn([C@@H]2O[C@H](CO)[C@@H](O)[C@H]2O)n1 [Ribavirin]
- risk class to induce psychiatric adverse side effect in a patient [2]: low risk

Structure (SMILES): CN[C@H]1CC[C@@H](c2ccc(Cl)c(Cl)c2)c2ccccc21 [Sertraline]
- risk class to induce psychiatric adverse side effect in a patient [2]: at risk
- dose dependence of 5-HT2cR/HTR2C RNA editing profile (HTR2C RNA editing [3]): Dose-dependent alterations of RNA editing profiles

Structure (SMILES): C[C@H](NC(=O)C(C)(C)Oc1ccc(C(F)(F)F)cn1)[C@@H](Cc1ccc(Cl)cc1)c1cccc(C#N)c1 [Taranabant]
- risk class to induce psychiatric adverse side effect in a patient [2]: at risk

Structure (SMILES): COC(=O)[C@H]1[C@H]2C[C@@H]3c4[nH]c5cc(OC)ccc5c4CCN3C[C@H]2C[C@@H](OC(=O)c2cc(OC)c(OC)c(OC)c2)[C@@H]1OC [molecule 165]
- effect on ADAR1a mRNA expression (ADAR1a mRNA expression): induced ADAR1a mRNA expression; also recorded: strong increase of ADAR1a mRNA expression levels
